These molecules were tested on BACE1 (assay: Screening for ALT-59 derivatives with BACE1 protein levels as indicator, U-87 MG cells). Settings: 2 days, concentrations as indicated in FIGS. 15-17.
Type: cell-based
Description: Additional experiments were performed to screen for compounds with higher potency and the ability to penetrate blood brain barrier using BACE1 protein levels as an indicator. U-87 MG cells were cultured as described previously and treated for 2 days with compounds at concentrations as indicated in FIGS. 15-17. Cells were then subjected to Western blotting analysis using anti-BACE1 and anti-beta-actin antibodies.

Question: Which BACE1 protein expression does the source give for `O=C1CCCC2=C1C(c1ccc(O)c(O)c1)Nc1c2ccc2ccccc12` (stereo not drawn) [ALT-317, 6-(3,4-dihydroxyphenyl)-6,8,9,10-tetrahydrobenzo[c]phenanthridin-7(5H)-one] here?
Answer: capable of lowering BACE1 expression

Question: With `Cc1ccc(C2Nc3ccc4ccccc4c3C3=C2C(=O)CC(C)(C)C3)cc1` (stereo not drawn) [ALT-306, 2,2-dimethyl-5-(p-tolyl)-2,3,5,6-tetrahydrobenzo[a]phenanthridin-4(1H)-one] as the molecule, how does the BACE1 protein expression read?
Answer: capable of lowering BACE1 expression

Question: `COc1ccc(C2Nc3c(ccc4ccccc34)C3=C2C(=O)CCC3)cc1Br` (stereo not drawn) [ALT-108, 6-(3-bromo-4-methoxyphenyl)-6,8,9,10-tetrahydrobenzo[c]phenanthridin-7(5H)-one] was tested. Which BACE1 protein expression did it give?
Answer: capable of lowering BACE1 expression

Question: `O=C1CCCC2=C1C(c1ccc3c(c1)OCO3)Nc1c2ccc2ncccc12` (stereo not drawn) [ALT-403, 6-(benzo[d][1,3]dioxol-5-yl)-6,8,9,10-tetrahydrobenzo[c][1,7]phenanthrolin-7(5H)-one] was tested. Which BACE1 protein expression did it give?
Answer: capable of lowering BACE1 expression

Question: For `COc1cc(C2Nc3ccc4ccccc4c3C3=C2C(=O)CC(C)(C)C3)cc2c1OCO2` (stereo not drawn) [ALT-211, 5-(7-methoxybenzo[d][1,3]dioxol-5-yl)-2,2-dimethyl-2,3,5,6-tetrahydrobenzo[a]phenanthridin-4(1H)-one], which BACE1 protein expression is on record?
Answer: capable of lowering BACE1 expression

Question: For `CCOC(=O)COc1c(Cl)cc(C2Nc3ccc4ccccc4c3C3=C2C(=O)CCC3)cc1OC` (stereo not drawn) [ALT-406, ethyl 2-(2-chloro-6-methoxy-4-(4-oxo-1,2,3,4,5,6-hexahydrobenzo[a]phenanthridin-5-yl)phenoxy)acetate], which BACE1 protein expression is on record?
Answer: capable of lowering BACE1 expression

Question: How did the BACE1 protein expression turn out when `COc1cc(C2Nc3ccc4ccccc4c3C3=C2C(=O)CC(C)(C)C3)ccc1OCC(=O)O` (stereo not drawn) [ALT-413, 2-(4-(2,2-dimethyl-4-oxo-1,2,3,4,5,6-hexahydrobenzo[a]phenanthridin-5-yl)-2-methoxyphenoxy)acetic acid] was run?
Answer: capable of lowering BACE1 expression

Question: For `CC1(C)CC(=O)C2=C(C1)c1c(ccc3ccccc13)NC2c1cccc(OC(F)(F)C(F)F)c1` (stereo not drawn) [ALT-110, 2,2-dimethyl-5-(3-(1,1,2,2-tetrafluoroethoxy)phenyl)-2,3,5,6-tetrahydrobenzo[a]phenanthridin-4(1H)-one], which BACE1 protein expression is on record?
Answer: capable of lowering BACE1 expression

Question: For `CC1(C)CC(=O)C2=C(C1)c1c(ccc3ccccc13)NC2c1ccc(Br)s1` (stereo not drawn) [ALT-202, 5-(5-bromothiophen-2-yl)-2,2-dimethyl-2,3,5,6-tetrahydrobenzo[a]phenanthridin-4(1H)-one], which BACE1 protein expression is on record?
Answer: capable of lowering BACE1 expression

Question: `CC1CCN(c2ccc(C3Nc4ccc5ccccc5c4C4=C3C(=O)CC(C)(C)C4)cc2[N+](=O)[O-])CC1` (stereo not drawn) [ALT-322, 2,2-dimethyl-5-(4-(4-methylpiperidin-1-yl)-3-nitrophenyl)-2,3,5,6-tetrahydrobenzo[a]phenanthridin-4(1H)-one] was tested. Which BACE1 protein expression did it give?
Answer: capable of lowering BACE1 expression

Question: How did the BACE1 protein expression turn out when `CCOc1ccc(C2Nc3ccc4ccccc4c3C3=C2C(=O)CC(C)(C)C3)cc1OC` (stereo not drawn) [ALT-207, 5-(4-ethoxy-3-methoxyphenyl)-2,2-dimethyl-2,3,5,6-tetrahydrobenzo[a]phenanthridin-4(1H)-one] was run?
Answer: capable of lowering BACE1 expression

Question: For `C#CCOc1c(I)cc(C2Nc3ccc4ccccc4c3C3=C2C(=O)CC(C)(C)C3)cc1OC` (stereo not drawn) [ALT-402, 5-(3-iodo-5-methoxy-4-(prop-2-yn-1-yloxy)phenyl)-2,2-dimethyl-2,3,5,6-tetrahydrobenzo[a]phenanthridin-4(1H)-one], which BACE1 protein expression is on record?
Answer: capable of lowering BACE1 expression

Question: How did the BACE1 protein expression turn out when `CC1(C)CC(=O)C2=C(C1)c1c(ccc3ccccc13)NC2c1cccc(OCc2cc3c(cc2Cl)OCO3)c1` (stereo not drawn) [ALT-210, 5-(3-((6-chlorobenzo[d][1,3]dioxol-5-yl)methoxy)phenyl)-2,2-dimethyl-2,3,5,6-tetrahydrobenzo[a]phenanthridin-4(1H)-one] was run?
Answer: capable of lowering BACE1 expression

Question: Which BACE1 protein expression does the source give for `CCCC(=O)Oc1ccc(C2Nc3ccc4ccccc4c3C3=C2C(=O)CCC3)cc1OC` (stereo not drawn) [ALT-408, 2-methoxy-4-(4-oxo-1,2,3,4,5,6-hexahydrobenzo[a]phenanthridin-5-yl)phenyl butyrate] here?
Answer: capable of lowering BACE1 expression

Question: Which BACE1 protein expression does the source give for `CC1(C)CC(=O)C2=C(C1)C(c1ccc3c(c1)OCO3)Nc1ccc3ccccc3c12` (stereo not drawn) [ALT-201, 5-(benzo[d][1,3]dioxol-5-yl)-3,3-dimethyl-3,4,5,6-tetrahydrobenzo[a]phenanthridin-1(2H)-one] here?
Answer: capable of lowering BACE1 expression

Question: With `Cn1ccnc1Sc1ccc(C2Nc3ccc4ccccc4c3C3=C2C(=O)CC(C)(C)C3)cc1[N+](=O)[O-]` (stereo not drawn) [ALT-324, 2,2-dimethyl-5-(4-((1-methyl-1H-imidazol-2-yl)thio)-3-nitrophenyl)-2,3,5,6-tetrahydrobenzo[a]phenanthridin-4(1H)-one] as the molecule, how does the BACE1 protein expression read?
Answer: capable of lowering BACE1 expression

Question: With `COc1cc(C2Nc3ccc4ccccc4c3C3=C2C(=O)CC(C)(C)C3)cc(Br)c1OC` (stereo not drawn) [ALT-208, 5-(3-bromo-4,5-dimethoxyphenyl)-2,2-dimethyl-2,3,5,6-tetrahydrobenzo[a]phenanthridin-4(1H)-one] as the molecule, how does the BACE1 protein expression read?
Answer: capable of lowering BACE1 expression

Question: Which BACE1 protein expression does the source give for `CC1(C)CC(=O)C2=C(C1)c1c(ccc3ccccc13)NC2c1ccc(C(F)(F)F)cc1` (stereo not drawn) [ALT-212, 2,2-dimethyl-5-(4-(trifluoromethyl)phenyl)-2,3,5,6-tetrahydrobenzo[a]phenanthridin-4(1H)-one] here?
Answer: capable of lowering BACE1 expression

Question: How did the BACE1 protein expression turn out when `C=CCOc1ccc(C2Nc3ccc4ccccc4c3C3=C2C(=O)CC(C)(C)C3)cc1OC` (stereo not drawn) [ALT-409, 5-(4-(allyloxy)-3-methoxyphenyl)-2,2-dimethyl-2,3,5,6-tetrahydrobenzo[a]phenanthridin-4(1H)-one] was run?
Answer: capable of lowering BACE1 expression

Question: For `CCN(CC)c1ccc(C2Nc3ccc4ncccc4c3C3=C2C(=O)CC(C)(C)C3)cc1` (stereo not drawn) [ALT-404, 8-(4-(diethylamino)phenyl)-11,11-dimethyl-8,10,11,12-tetrahydrobenzo[a][4,7]phenanthrolin-9(7H)-one], which BACE1 protein expression is on record?
Answer: capable of lowering BACE1 expression

Question: How did the BACE1 protein expression turn out when `CCN(CC)c1ccc(C2Nc3ccc4ccccc4c3C3=C2C(=O)CC(C)(C)C3)cc1` (stereo not drawn) [ALT-318, 5-(4-(diethylamino)phenyl)-2,2-dimethyl-2,3,5,6-tetrahydrobenzo[a]phenanthridin-4(1H)-one] was run?
Answer: capable of lowering BACE1 expression

Question: Which BACE1 protein expression does the source give for `Cc1ccc(C2Nc3c(ccc4ccccc34)C3=C2C(=O)CC(C)(C)C3)cc1` (stereo not drawn) [ALT-333, 9,9-dimethyl-6-(p-tolyl)-6,8,9,10-tetrahydrobenzo[c]phenanthridin-7(5H)-one] here?
Answer: capable of lowering BACE1 expression

Question: `CC(C)c1ccc(C2Nc3ccc4ccccc4c3C3=C2C(=O)CC(C)(C)C3)cc1` (stereo not drawn) [ALT-309, 5-(4-isopropylphenyl)-2,2-dimethyl-2,3,5,6-tetrahydrobenzo[a]phenanthridin-4(1H)-one] was tested. Which BACE1 protein expression did it give?
Answer: capable of lowering BACE1 expression

Question: `CC1(C)CC(=O)C2=C(C1)c1c(ccc3ccccc13)NC2c1cccc(C(F)(F)F)c1` (stereo not drawn) [ALT-215, 2,2-dimethyl-5-(3-(trifluoromethyl)phenyl)-2,3,5,6-tetrahydrobenzo[a]phenanthridin-4(1H)-one] was tested. Which BACE1 protein expression did it give?
Answer: capable of lowering BACE1 expression

— patent publication US20230095021A1, “MODULATORS OF TDP-43” (Alteron Therapeutics, Inc., priority 2019, published 2023)
